The results in this text go back to patent US8592579B2, “Pyrrolotriazine kinase inhibitors” (Bristol-Myers Squibb Company, priority 2006, dated 2013).

Molecules are shown by their SMILES.

In one assay the test system is IGF1R-Sal tumors. Nature of the assay: IGF-1R Sal Tumor Model. The settings on record: Mus musculus, 96 h, 6.25 mpk, qd, oral, 4 consecutive days, read-out: IGF-1R Sal % TGI. The format is in vivo, nude mice.
Experimental: A salivary gland adenocarcinoma that developed spontaneously in a transgenic mouse (MCI-19) was excised and cut into fragments of about 20 mg. Tumor fragments were implanted s.c. into the ventral thoracic region of a group of six female, athymic BALB/c nu/nu mice (Harley Sprague-Dawley, Indianapolis, Ind.), using a 13-gauge trocar. Once established, the salivary gland-derived tumor line was designated IGF 1R-Sal and was propagated as a tumor xenograft in nude mice. Tumors were passaged every 2 weeks, at which time the tumor reached f500 to 1,000 mm3 in size. […] Compounds were administered either on a bid schedule (oral doses 8 hours apart) or on a once a day schedule orally (qd) for 4 consecutive days. Tumors were measured at the start and end of treatment. Activity was measured as % tumor growth inhibition (% TGI). The % TGI was determined using the following formula (Ct−Tt)/(Ct−Co) where Ct is defined as the median tumor size of the control group at the end of treatment, Co is defined as the median tumor size of the control group at the start of treatment, and Tt is defined as the median tumor size of the treated group at the end of treatment.
Regarding `CNC(=O)[C@@H]1CCCN1c1nc(Nc2cc(C3CC3)[nH]n2)c2cccn2n1` [Example 3, (S)-1-(4-(5-cyclopropyl-1H-pyrazol-3-ylamino)pyrrolo[1,2-f][1,2,4]triazin-2-yl)-N-methylpyrrolidine-2-carboxamide], the inhibition in vivo at 6.25 mg/kg turned out to be 80%.

The assay is the same for the next values; noted with them: Mus musculus, 96 h, 25 mpk, bid, oral, 4 consecutive days, read-out: IGF-1R Sal % TGI.
Turning to `CC1(c2cc(Nc3nc(N4CCC[C@H]4C(=O)N[C@@H]4CCCNC4)nn4cccc34)n[nH]2)CC1` [Example 194, (S)-1-(4-(5-(1-methylcyclopropyl)-1H-pyrazol-3-ylamino)pyrrolo[1,2-f][1,2,4]triazin-2-yl)-N-((R)-piperidin-3-yl)pyrrolidine-2-carboxamide], the inhibition in vivo at 25 mg/kg is 52%.

`O=C(Nc1nccs1)[C@@H]1C[C@@H](F)CN1c1nc(Nc2cc(C3CC3)[nH]n2)c2cccn2n1` [Example 198, (2S,4R)-1-(4-(5-cyclopropyl-1H-pyrazol-3-ylamino)pyrrolo[1,2-f][1,2,4]triazin-2-yl)-4-fluoro-N-(thiazol-2-yl)pyrrolidine-2-carboxamide]: the inhibition in vivo at 25 mg/kg worked out at 124%.

For `O=C(Nc1ccc(F)nc1)[C@@H]1C[C@@H](O)CN1c1nc(Nc2cc(C3CC3)[nH]n2)c2cccn2n1` [Example 217, (2S,4R)-1-(4-(5-cyclopropyl-1H-pyrazol-3-ylamino)pyrrolo[1,2-f][1,2,4]triazin-2-yl)-N-(6-fluoropyridin-3-yl)-4-hydroxypyrrolidine-2-carboxamide], the inhibition in vivo at 25 mg/kg was determined as 0%.

With `C[C@@]1(C(=O)Nc2cccnc2)CCCN1c1nc(Nc2cc(C3CC3)[nH]n2)c2cccn2n1` [Example 68], the inhibition in vivo at 25 mg/kg was 76%.

Regarding `Cc1cc(Nc2nc(N3CCC[C@@]3(C)C(=O)Nc3cccnc3)nn3cccc23)n[nH]1` [Example 85], the inhibition in vivo at 25 mg/kg is 76%.

Take `Cc1cc(NC(=O)[C@]2(C)CCCN2c2nc(Nc3cc(C4CC4)[nH]n3)c3cccn3n2)n[nH]1` [Example 135]: the inhibition in vivo at 25 mg/kg was 25%.

On to `CC(C)n1cnc(Nc2nc(N3CCC[C@H]3C(=O)NC3CCCN(C)C3)nn3cccc23)c1` (stereo partly drawn) [Example 236, (S)-1-(4-(1-Isopropyl-1H-imidazol-4-ylamino)pyrrolo[1,2-f][1,2,4]triazin-2-yl)-N-((R)-1-methylpiperidin-3-yl)pyrrolidine-2-carboxamide], for which the inhibition in vivo at 25 mg/kg worked out at 113%.

The assay is the same for the next values; noted with them: Mus musculus, 96 h, 50 mpk, qd, oral, 4 consecutive days, read-out: IGF-1R Sal % TGI.
Take `CC(C)n1cnc(Nc2nc(N3C[C@@H](O)C[C@H]3C(=O)Nc3cnccn3)nn3cccc23)c1` [Example 245, (2S,4S)-4-hydroxy-1-(4-(1-isopropyl-1H-imidazol-4-ylamino)pyrrolo[L2-f][1,2,4]triazin-2-yl)-N-(pyrazin-2-yl)pyrrolidine-2-carboxamide]: the inhibition in vivo at 50 mg/kg came to 112%.

For the compound `O=C(Nc1cnccn1)[C@@H]1C[C@@H](F)CN1c1nc(Nc2cc(C3CC3)[nH]n2)c2cccn2n1` [Example 206], the inhibition in vivo at 50 mg/kg came out at 111%.

For the compound `C[C@@]1(C(=O)Nc2cnccn2)C[C@H](O)CN1c1nc(Nc2cc(C3CC3)[nH]n2)c2cccn2n1` [Example 227, (2S,4S)-1-(4-(5-cyclopropyl-1H-pyrazol-3-ylamino)pyrrolo[1,2-f][1,2,4]triazin-2-yl)-4-hydroxy-2-methyl-N-(pyrazin-2-yl)pyrrolidine-2-carboxamide], the inhibition in vivo at 50 mg/kg stood at 115%.
